US20050209335A1, “Methods for use of TARGRETIN in organ transplant rejection, autoimmune diseases and cancer” (priority 2004, published 2005)
Read-outs that look alike come from different tables or passages of the source.

Assays:
[1] = tested on: squamous cell carcinoma of the head and neck; details: cited from earlier work
[2] = tested on: non-small-cell lung carcinoma; details: oral, in combination with cisplatin and vinorelbin, previously untreated patients; cited from earlier work
melanoma = details: single daily oral dose of 450 mg/m^2 in capsule form; cited from earlier work
[3] = tested on: T-cell non-Hodgkin's lymphoma; test: TARGRETIN in patients with T-cell non-Hodgkin's lymphomas other than cutaneous T-cell lymphoma; assay type: in vivo, human
Experimental: Specifically, TARGRETIN was administered to a patient suffering from a post-transplant lymphoproliferative disorder type lymphoma. This is a T-cell non-Hodgkin's lymphoma related to organ transplantation. This patient had horrific lymphoma with involvement of their cerebral spinal fluid.
TARGRETIN was administered to a second patient suffering from a rare type of T-cell lymphoma, an angiocentric T-cell lymphoma.

[4] = Tolerability of TARGRETIN dosing regimes in patients; assay type: in vivo, human
Description: Further, by “effective amount” as used herein, it is meant a concentration of TARGRETIN administered by a selected route and dosing schedule which lessens or decreases severity of a symptom of the disease state or condition from which the patient is suffering and/or a concentration of TARGRETIN which increases neutrophil count in a patient and/or a concentration of TARGRETIN which increases the efficacy of a co-administered cancer chemotherapeutic agent. Such amounts can be routinely determined by those skilled in the art based upon the teachings herein as well as what is known in the art about TARGRETIN with respect to treatment of cutaneous T-cell lymphoma. […] Further, the Food and Drug Administration's approved dose for TARGRETIN in the treatment of cutaneous T-cell lymphoma is 300 mg/M^2. It is expected that similar dosages will also be effective in treating autoimmune diseases or disorders, and in particular graft versus host disease, as well as organ transplant rejection.

eczema dermatitis = test: TARGRETIN as substitute for tacrolimus and steroids in eczema dermatitis; details: in vivo
[5] = tested on: refractory acute lymphocytic leukemia; test: TARGRETIN in combination with low dose chemotherapy in two patients with refractory acute lymphocytic leukemia; assay type: in vivo, human; details: both patients
Experimental: In these experiments, two patients with refractory acute lymphocytic leukemia were treated with TARGRETIN in combination with low dose chemotherapy.

[6] = tested on: NMU-induced mammary carcinomas; details: rat; cited from earlier work
[7] = tested on: acute myeloid leukemia (AML); assay type: in vivo
Experimental: In these studies, five patients with relapsed refractory AML were treated with TARGRETIN monotherapy.
The first patient had failed induction chemotherapy, had fungal pneumonia, and active leukemia with no immune system. This patient was sent home under hospice care, but given TARGRETIN to take orally in a pill formulation. Within a few months, this patient no longer needed hospice care and had returned to work. It is believed that upon administration of TARGRETIN, this patient was able to maintain an immune system, thereby clearing the fungal pneumonia and preventing further fatal infections.
The second patient was a heart transplant patient who developed AML and failed induction chemotherapy as well as a second line of chemotherapy. With active leukemia and no immune system they were placed on TARGRETIN. […] Upon escalation of the TARGRETIN dose it was observed that their neutrophil count continued to increase and the leukemia count dropped. This increase in neutrophil count and decrease in leukemia count continued with each dose escalation until the patient was taking six TARGRETIN capsules a day. […] This syndrome is a cell differentiation disorder wherein leukemia cells differentiate into normal immune cells. While this syndrome is good in that it boosts the immune system while decreasing the leukemia count, cytokines released by the differentiating neutrophils can cause a pulmonary syndrome. At six TARGRETIN capsules a day the second patient developed a syndrome exactly like that observed in ATRA administration. TARGRETIN treatment was stopped and within one week the neutrophil count dropped from 1500 to 200 and the pulmonary syndrome resolved. TARGRETIN treatment was then restarted at three capsules daily and the neutrophil count returned to 600. This patient continued treatment for an additional 9 months at which time they developed an infection and died. At the time of death their leukemia was still well under control.
The third patient had failed induction therapy and was suffering from active AML with disseminated intravascular coagulation (DIC), a blood clotting disorder relating to active leukemia. This patient was completely bed-ridden. It was believed that they could not tolerate further chemotherapy and was placed on TARGRETIN. […] They also developed a small number of immune cells and was able to return to their home where their physical condition continued to improve. This patient lived for approximately 4.5 months before they developed progressive leukemia. At that point they declined further therapy and expired.
The fourth patient had raging AML. This patient was placed on TARGRETIN but expired within 3 days of starting treatment. It is believed that the TARGRETIN treatment may have been started too late in the course of this patient's disease to provide an effect.
The fifth patient treated with TARGRETIN was suffering from a relapse after already having undergone an allogeneic bone marrow transplant, one of the most aggressive treatments possible for AML. […] This patient ultimately expired, however, from complications relating to their bone marrow transplant.

Q: What does the source list for `C=C(c1ccc(C(=O)O)cc1)c1cc2c(cc1C)C(C)(C)CCC2(C)C` [TARGRETIN]?
A: effect on proliferation [1]: decrease; response rate and survival [2]: acceptable phase II response rates with better-than expected survival; efficacy against melanoma (melanoma): ineffective; duration of remission ([3]; patient with angiocentric T-cell lymphoma, prior bone marrow transplant failed): in remission for three months; duration of remission ([3]; patient with post-transplant lymphoproliferative disorder type lymphoma, prior chemotherapy failed): in remission for four months; tolerability ([4]; 100 to 150 mg per meter square of body surface area, ongoing clinical trials): well-tolerated; tolerability ([4]; oral 2-3 capsules a day or 150 to 225 mg a day): without unwanted side effects; efficacy in eczema dermatitis (eczema dermatitis): effective substitute for tacrolimus and steroids; efficacy of combination treatment [5]: significantly greater than expected; efficacy as chemopreventative and chemotherapeutic agent [6]: efficacious; immune response upon initiation of treatment ([7]; fifth patient, relapse after allogeneic bone marrow transplant): mounted an immune system response; duration leukemia kept under control ([7]; first patient, oral pill formulation): kept under control for nine months; time to death after starting treatment ([7]; fourth patient, raging AML): ≤ 3 days; adverse event ([7]; human, in vivo): developed a pulmonary syndrome very similar to that seen in patients taking trans retinoic acid (ATRA); additional duration of treatment, leukemia still well under control at death ([7]; second patient, after restart at three capsules daily): 9 months; neutrophil count ([7]; second patient, at six capsules a day, before treatment was stopped): 1500; neutrophil count ([7]; second patient, treatment restarted at three capsules daily): 600; neutrophil count ([7]; second patient, within one week after TARGRETIN treatment was stopped): 200; change of neutrophil count and leukemia count after start of treatment ([7]; second patient, within one week of treatment): neutrophil count and/or immune system was rising and their leukemia count was dropping; patients exhibiting a positive response (increase in neutrophil count and/or decrease in leukemia count) ([7]; terminal AML, TARGRETIN monotherapy): 4 out of 5; resolution of disseminated intravascular coagulation (DIC) ([7]; third patient): resolved within four days; time lived before progressive leukemia ([7]; third patient): approximately 4.5 months
